# Source: paper PMC12304285 (British Journal of Cancer, 2025)
# “Also recorded” adds a separate entry of the source.
# Columns and labels:
# [1] = tested on: PBMCs collected from patients; test: iMRM-MS of DDR proteins in PBMCs collected from patients on treatment; assay type: in vivo, human; settings: doses up to 40 mg
# Experimental: Prior to assessing clinical trial samples, PBMCs from healthy volunteers were treated ex vivo to determine biomarkers modulated by AZD7648. […] Samples were pooled and analysed by iMRM-MS. During the clinical trial, patient blood samples were collected during cycle 1 (day 1 and day 8), cycle 2 (day 1) and at the end of treatment and were analysed by iMRM-MS [20–23]. On-treatment tumour biopsies were optional in the trial protocol and none were collected, so tumour PD studies were not conducted.
# Preparation of Clinical PBMCs and iMRM analysis
# Blood from patients was drawn into 8 mL Vacutainer CPT tubes (BD) before treatment, 2-8h post dose at C1D1, C1D8, C2D1 and at discontinuation.
# After inverting the tube 8 -10 times, it was centrifuged and the PBMC layer transferred into a new tube, washed once with ice cold PBS, centrifuged again to obtain a pellet which was then […]
# PBMC pellets were lysed with 8M Urea supplemented with proteases and phosphatases inhibitors, sonicated, clarified by centrifugation and quantified with Micro -BCA assay (Thermo - […]
# The samples were quality checked by SDS -PAGE followed by silver staining to evaluate the complexity of the obtained protein extract and assess the presence of most common blood contaminants (hemoglobulin and albumin). […]
# [2] = tested on: patients with advanced cancer; test: Preliminary antitumour activity by RECIST v1.1 (best objective response, target lesion change, PFS);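 note: same imaging modality as baseline kept at every follow-up, response-evaluable patients had ≥1 measurable non-irradiated target lesion ≥10 mm longest diameter and received ≥1 study dose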
# Experimental: The imaging method used at baseline had to be used at all follow-up visits. The following parameters were estimated: percentage best change in target lesion; duration of response; objective response rate (ORR); and progression-free survival (PFS).
# Descriptive statistics were used for all variables, as appropriate, and calculated only when n ≥ 3. Where data were available for <3 patients, only minimum, maximum and number of observations were provided. Percentages were calculated using the analysis set total and for modules or doses, unless otherwise stated. […] PFS, including median time to PFS and PFS rate at a specific timepoint, was summarized using the Kaplan–Meier method. SAS® version 9.4 was used for all analyses. The PK analysis set included dosed patients for whom an adequate PK profile was obtained.
# [3] = 12 patients evaluable for objective response
smiles,measurement,setting,value
"Cc1cc2ncnn2cc1Nc1ncc2c(n1)n(C1CCOCC1)c(=O)n2C [AZD7648, 7-Methyl-2-[(7-methyl[1,2,4]triazolo[1,5-a]pyridin-6-yl)amino]-9-(tetrahydro-2H-pyran-4-yl)-7,9-dihydro-8H-purin-8-one]",activity on DDR protein markers in patient PBMCs,[1],did not show any activity; also recorded: not biologically active
same,Best objective response: Complete response,[2]; 5 mg BID (n = 1),0 n (%)
same,Best objective response: Death,[2]; 5 mg BID (n = 1),0 n (%)
same,Best objective response: Disease progression,[2]; 5 mg BID (n = 1),1 (100.0) n (%)
same,Best objective response: Not evaluable,[2]; 5 mg BID (n = 1),0 n (%)
same,Best objective response: Partial response,[2]; 5 mg BID (n = 1),0 n (%)
same,Best objective response: Stable disease,[2]; 5 mg BID (n = 1),0 n (%)
same,Best objective response: Complete response,[2]; 5 mg QD (n = 1),0 n (%)
same,Best objective response: Death,[2]; 5 mg QD (n = 1),0 n (%)
same,Best objective response: Disease progression,[2]; 5 mg QD (n = 1),0 n (%)
same,Best objective response: Not evaluable,[2]; 5 mg QD (n = 1),0 n (%)
same,Best objective response: Partial response,[2]; 5 mg QD (n = 1),0 n (%)
same,Best objective response: Stable disease,[2]; 5 mg QD (n = 1),1 (100.0) n (%)
same,Best objective response: Complete response,[2]; 10 mg BID (n = 1),0 n (%)
same,Best objective response: Death,[2]; 10 mg BID (n = 1),0 n (%)
same,Best objective response: Disease progression,[2]; 10 mg BID (n = 1),0 n (%)
same,Best objective response: Not evaluable,[2]; 10 mg BID (n = 1),0 n (%)
same,Best objective response: Partial response,[2]; 10 mg BID (n = 1),0 n (%)
same,Best objective response: Stable disease,[2]; 10 mg BID (n = 1),1 (100.0) n (%)
same,Best objective response: Complete response,[2]; 20 mg BID (n = 1),0 n (%)
same,Best objective response: Death,[2]; 20 mg BID (n = 1),0 n (%)
same,Best objective response: Disease progression,[2]; 20 mg BID (n = 1),1 (100.0) n (%)
same,Best objective response: Not evaluable,[2]; 20 mg BID (n = 1),0 n (%)
same,Best objective response: Partial response,[2]; 20 mg BID (n = 1),0 n (%)
same,Best objective response: Stable disease,[2]; 20 mg BID (n = 1),0 n (%)
same,Best objective response: Complete response,[2]; 40 mg BID (n = 2),0 n (%)
same,Best objective response: Death,[2]; 40 mg BID (n = 2),1 (50.0) n (%)
same,Best objective response: Disease progression,[2]; 40 mg BID (n = 2),1 (50.0) n (%)
same,Best objective response: Not evaluable,[2]; 40 mg BID (n = 2),0 n (%)
same,Best objective response: Partial response,[2]; 40 mg BID (n = 2),0 n (%)
same,Best objective response: Stable disease,[2]; 40 mg BID (n = 2),0 n (%)
same,Best objective response: Complete response,[2]; 80 mg BID (n = 4),0 n (%)
same,Best objective response: Death,[2]; 80 mg BID (n = 4),1 (25.0) n (%)
same,Best objective response: Disease progression,[2]; 80 mg BID (n = 4),1 (25.0) n (%)
same,Best objective response: Not evaluable,[2]; 80 mg BID (n = 4),1 (25.0) n (%)
same,Best objective response: Partial response,[2]; 80 mg BID (n = 4),0 n (%)
same,Best objective response: Stable disease,[2]; 80 mg BID (n = 4),1 (25.0) n (%)
same,Best objective response: Complete response,[2]; 160 mg BID (n = 2),0 n (%)
same,Best objective response: Death,[2]; 160 mg BID (n = 2),0 n (%)
same,Best objective response: Disease progression,[2]; 160 mg BID (n = 2),1 (50.0) n (%)
same,Best objective response: Not evaluable,[2]; 160 mg BID (n = 2),0 n (%)
same,Best objective response: Partial response,[2]; 160 mg BID (n = 2),0 n (%)
same,Best objective response: Stable disease,[2]; 160 mg BID (n = 2),1 (50.0) n (%)
same,patients who died due to disease progression,[2]; [3],16.7%
same,patients with RECIST disease progression,[2]; [3],41.7%
same,patients with RECIST stable disease,[2]; [3],33.3%
same,Best objective response: Complete response,[2]; All cohorts of the module,0 n (%)
same,Best objective response: Death,[2]; All cohorts of the module,2 (16.7) n (%)
same,Best objective response: Disease progression,[2]; All cohorts of the module,5 (41.7) n (%)
same,Best objective response: Not evaluable,[2]; All cohorts of the module,1 (8.3) n (%)
same,Best objective response: Partial response,[2]; All cohorts of the module,0 n (%)
same,Best objective response: Stable disease,[2]; All cohorts of the module,4 (33.3) n (%)
same,Median PFS,"[2]; Kaplan–Meier, all dose levels",1.91 months
same,PFS rate at 6 months,"[2]; Kaplan–Meier, all dose levels",23.08%
same,RECIST response observed,[2]; all dose levels,No responses; also recorded: No patient had a RECIST complete or partial response
same,percentage change in target lesion size from baseline,"[2]; one patient with stable disease, 80 mg BID",−29.2%
same,"best percentage change from baseline in target lesion size, increase of the patient capped in the waterfall plot",[2]; single patient,108.33%
